Experimental data as given in PubChem BioAssay (NCI).
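In this assay, cells in 96-well plates receive the compound at five concentrations for 48 hours. Endpoints are linearly interpolated between the surrounding concentrations. Here, GI50 denotes the concentration required for 50% inhibition of growth. At the TGI there is no net growth.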

What was measured:
Assay in all cases: NCI anticancer screen, dose series, 48 h
[1] = system: LOX IMVI melanoma
[2] = system: OVCAR-4 ovarian
[3] = system: SNB-19 CNS
[4] = system: NCI/ADR-RES ovarian
[5] = system: MCF7 breast
[6] = system: HOP-92 NSCLC
[7] = system: CCRF-CEM leukemia

O=C(O)c1cccc(F)c1C(=O)c1ccc2ccccc2c1
TGI [1]: > 100 µM
TGI [2]: > 100 µM
TGI [3]: > 100 µM
TGI [4]: > 100 µM
TGI [5]: > 100 µM
TGI [6]: > 100 µM
TGI [7]: > 100 µM

COc1ccc2c(C(=O)NCCCCCC(=O)O)cc3cc4c(cc3c2c1)OCO4
GI50 [1]: > 100 µM
TGI [1]: > 100 µM
GI50 [3]: > 100 µM
TGI [3]: > 100 µM
GI50 [4]: > 100 µM
TGI [4]: > 100 µM
GI50 [5]: > 100 µM
TGI [5]: > 100 µM
GI50 [6]: > 100 µM
TGI [6]: > 100 µM
GI50 [7]: > 100 µM
TGI [7]: > 100 µM

COC(=O)c1cccc(COc2ccc([N+](=O)[O-])cc2Cl)c1
TGI [1]: > 100 µM
TGI [2]: > 100 µM
TGI [3]: > 100 µM
TGI [4]: > 100 µM
TGI [5]: > 100 µM
TGI [6]: > 100 µM
TGI [7]: > 100 µM

COc1ccc2nc3c(cc2c1)C(=O)CC(C(F)(F)F)C3 (configuration not stated)
GI50 [1]: 3.54 µM
TGI [1]: > 100 µM
GI50 [2]: 27 µM
TGI [2]: > 100 µM
GI50 [3]: 3.61 µM
TGI [3]: > 100 µM
GI50 [4]: 0.367 µM
TGI [4]: > 100 µM
GI50 [5]: 3.33 µM
TGI [5]: > 100 µM
GI50 [6]: 2.8 µM
TGI [6]: 94.2 µM
GI50 [7]: 0.223 µM
TGI [7]: > 100 µM

Cc1nc(N(C)C)nc(-c2cccc(-c3ccn(CCN(C)C)n3)c2)c1C
GI50 [1]: > 20 µM
TGI [1]: > 20 µM
GI50 [2]: > 20 µM
TGI [2]: > 20 µM
GI50 [4]: > 20 µM
TGI [4]: > 20 µM
GI50 [5]: > 20 µM
TGI [5]: > 20 µM
GI50 [6]: 4.71 µM
TGI [6]: > 20 µM
GI50 [7]: > 20 µM
TGI [7]: > 20 µM

OC(c1cc2c(Cl)cc(Cl)cc2c2cc(C(F)(F)F)ccc12)C1CCCCN1 (configuration not stated)
GI50 [2]: 2.11 µM
TGI [2]: 4.08 µM
GI50 [4]: 1.77 µM
TGI [4]: 3.64 µM
GI50 [6]: 1.12 µM
TGI [6]: 2.57 µM

CCN(CC)CCCNc1c2cc(OC)ccc2nc2cccc([N+](=O)[O-])c12
TGI [1]: 0.196 µM
TGI [2]: 0.0779 µM
TGI [3]: 2.02 µM
TGI [4]: 1.51 µM
TGI [5]: 0.22 µM
TGI [6]: 0.239 µM
TGI [7]: 0.582 µM

COc1cc(Nc2nccc(-c3cnn4ncccc34)n2)cc(OC)c1
GI50 [1]: 0.0539 µM
TGI [1]: > 9.54 µM
GI50 [2]: 0.268 µM
TGI [2]: 1.35 µM
GI50 [3]: 0.0836 µM
TGI [3]: > 25 µM
GI50 [4]: 0.0937 µM
TGI [4]: 2.26 µM
GI50 [5]: 0.0521 µM
TGI [5]: 0.2 µM
GI50 [6]: 0.0317 µM
TGI [6]: 0.151 µM
GI50 [7]: 0.0668 µM

Cc1cccc(C)c1NC(=O)/C(CC(=O)CC(c1ccccc1)c1c(O)c2ccccc2oc1=O)=N/O (configuration not stated)
TGI [1]: > 100 µM
TGI [2]: > 100 µM
TGI [3]: > 100 µM
TGI [4]: > 100 µM
TGI [5]: > 100 µM
TGI [6]: > 100 µM
TGI [7]: > 100 µM

CCCCCCOc1ccc(/C=N/Nc2cc(C)nc3ccc(Br)cc23)cc1
GI50 [1]: 1.53 µM
TGI [1]: 2.9 µM
GI50 [2]: 1.81 µM
TGI [2]: 3.46 µM
GI50 [3]: 1.83 µM
TGI [3]: 3.43 µM
GI50 [4]: 1.9 µM
TGI [4]: 3.84 µM
GI50 [5]: 1.64 µM
TGI [5]: 3.35 µM
GI50 [6]: 1.45 µM
TGI [6]: 2.97 µM
GI50 [7]: 1.71 µM
TGI [7]: 3.97 µM

CCCCCCCCCCCC(=O)[O][Sn]([CH2]CCC)([CH2]CCC)[CH2]CCC
GI50 [1]: 0.0259 µM
TGI [1]: 0.0712 µM
GI50 [2]: < 0.0212 µM
TGI [2]: 0.153 µM
GI50 [3]: 0.0859 µM
TGI [3]: 0.228 µM
GI50 [4]: 0.0703 µM
TGI [4]: 0.236 µM
GI50 [5]: 0.037 µM
TGI [5]: 0.161 µM
GI50 [6]: 0.0119 µM
TGI [6]: 0.0728 µM

COc1cccc(/C=N/[N-]C(N)=O)c1[O-].[Cu+2].c1ccncc1
TGI [1]: 36.5 µM
TGI [2]: 56.2 µM
TGI [3]: 25 µM
TGI [6]: 31.5 µM
TGI [7]: 56.2 µM

COc1ccc(/C=C/c2cnnc3ccccc23)cc1OC
TGI [1]: > 10 µM
TGI [2]: > 10 µM
TGI [3]: > 10 µM
TGI [4]: > 10 µM
TGI [5]: > 10 µM
TGI [6]: > 10 µM
TGI [7]: > 10 µM

Nc1c(C(=O)Nc2cccc3ccccc23)sc2nc3c(cc12)CCCCCC3
GI50 [1]: 1.96 µM
TGI [1]: > 50 µM
GI50 [2]: 5.75 µM
TGI [2]: > 50 µM
GI50 [3]: 2.62 µM
TGI [3]: > 50 µM
GI50 [4]: 0.784 µM
TGI [4]: > 50 µM
GI50 [5]: 0.302 µM
TGI [5]: > 50 µM
GI50 [6]: 6.58 µM
TGI [6]: > 50 µM
GI50 [7]: 1.65 µM
TGI [7]: > 50 µM

COc1cc2c(cc1OC)-c1c(c3ccc([N+](=O)[O-])cc3c(=O)n1CCCBr)C2=O
GI50 [1]: 3.9 µM
TGI [1]: 42.4 µM
GI50 [2]: 34.1 µM
TGI [2]: > 100 µM
GI50 [3]: 33.3 µM
TGI [3]: > 100 µM
GI50 [4]: 5.91 µM
TGI [4]: > 100 µM
GI50 [5]: 0.0985 µM
TGI [5]: > 100 µM
GI50 [6]: > 100 µM
TGI [6]: > 100 µM
GI50 [7]: 0.425 µM
TGI [7]: 67.7 µM

CCCCCC(=O)OC[n+]1ccc(-c2c(COC(=O)NC(C)C)c(COC(=O)NC(C)C)c3n2CCC3)cc1
TGI [1]: > 100 µM
TGI [2]: > 100 µM
TGI [3]: > 100 µM
TGI [4]: > 100 µM
TGI [5]: > 100 µM
TGI [6]: > 100 µM
TGI [7]: > 100 µM

CN1CCN(C(=S)N(C(=O)c2ccc(Cl)cc2)C2CCCCC2)CC1
TGI [1]: > 100 µM
TGI [2]: > 100 µM
TGI [3]: > 100 µM
TGI [5]: > 100 µM
TGI [6]: > 100 µM
TGI [7]: > 100 µM

CC(=O)SC(C[N+](=O)[O-])c1ccccc1 (configuration not stated)
TGI [1]: 3.34 µM
TGI [2]: 5.46 µM
TGI [3]: 30.9 µM
TGI [4]: 55.1 µM
TGI [5]: 4.35 µM
TGI [6]: 30.4 µM
TGI [7]: 19.9 µM

CN(CC(=O)O)Cc1c[nH]c2ccccc12
TGI [1]: > 100 µM
TGI [2]: > 100 µM
TGI [3]: > 100 µM
TGI [4]: > 100 µM
TGI [5]: > 100 µM
TGI [6]: > 100 µM
TGI [7]: > 100 µM

O=C(/C=C/c1ccco1)c1cccc(Nc2nc(Nc3ccccc3)nc(Nc3ccccc3)n2)c1
GI50 [1]: 17.9 µM
TGI [1]: > 100 µM
GI50 [2]: 10.6 µM
TGI [2]: > 100 µM
GI50 [3]: > 100 µM
TGI [3]: > 100 µM
GI50 [4]: 36.3 µM
TGI [4]: > 100 µM
GI50 [5]: 1.92 µM
TGI [5]: > 52.4 µM
GI50 [7]: 3.07 µM
TGI [7]: > 24.1 µM

COc1cc(Cl)c(C)cc1NC(=O)c1cc2ccccc2cc1O
GI50 [1]: 2.49 µM
TGI [1]: 10.8 µM
GI50 [2]: 3.28 µM
TGI [2]: 18.5 µM
GI50 [3]: 4.34 µM
TGI [3]: 20.7 µM
GI50 [4]: 2.55 µM
TGI [4]: 9.04 µM
GI50 [5]: 2.38 µM
TGI [5]: 13.2 µM
GI50 [6]: 0.398 µM
TGI [6]: 3.57 µM
GI50 [7]: 3.11 µM
TGI [7]: 19.6 µM

COc1ccc(/C=N/C2=C(C#N)C(c3ccccc3)c3ccc4ccccc4c3O2)cc1 (configuration not stated)
GI50 [1]: 0.587 µM
TGI [1]: > 51.4 µM
GI50 [2]: 0.645 µM
TGI [2]: > 100 µM
GI50 [3]: 0.54 µM
TGI [3]: > 100 µM
GI50 [4]: 0.262 µM
GI50 [5]: 0.425 µM
TGI [5]: > 100 µM
GI50 [6]: 0.439 µM
TGI [6]: > 44 µM
GI50 [7]: 0.377 µM
TGI [7]: > 100 µM
